Data: patent US4908384A, “Fatty acid leukotriene synthesis inhibitors” (McNeilab, Inc., priority 1986, dated 1990)

What was measured:
[1] = test system: human granulocyte cells; assay: Human granulocyte Assay for Lipoxygenase Products (HGALP); format: cell-based; details: inhibition of [3H]-lipoxygenase metabolite release; human granulocytes prelabeled with [3H]-arachidonic acid, 10 μM ionophore A23187, 14 μM indomethacin
Experimental: (b) Human granulocyte Assay for Lipoxygenase Products (HGALP)
This test is a measurement of the inhibition of the synthesis or relase of [3H]-labeled lipoxygenase metabolites released or generated from human granulocyte cells that are prelabeled with [3H]-arachidonic acid. These metabolites include the leukotrienes (e.g., LTB4) which are potent mediators of inflammation and allergy. In this test, a granulocyte enriched fraction is prepared from freshly drawn human blood (50 ml/donor) by standard techniques involving unit gravity separation on ficoll hypaque. […] After washing out unincorporated label, the radiolabeled cells are brought up in incubation buffer (Minimum Essential Medium containing 14 μM indomethacin) to a 10^7 cell/ml concentration. […] Cell suspensions are challeged with 10 μM ionophore A23187 to […], incubations are terminated by the addition of 1 ml ice cold phosphate buffered saline, and cells are pelleted by centrifugation. Supernatants are passed through C18 Sep Pak® cartridges which are then washed twice with 1 ml water. Lipoxygenase metabolites are eluted with two 1 ml volumes of methanol. Eluates are collected in scintillation vials and counted in Aqueous Counting Scintillant (ACS). Radioactivity eluted with methanol is a measure of lipoxygenase metabolites. Values are normalized to vehicle (5 μl DMSO) treated controls and expressed as percent inhibition. Triplicate determinations at each drug concentration are analyzed as log-dose response curves by linear regression analysis from which IC50 values are derived.
(§1) The results of the IMCPS and the HGALP tests, employing the administration of various illustrative compounds of the present invention, are shown in Table I. The compounds are of the formula (I) wherein R^1, R^2, R^3, A and Y are as shown, R^4 and R^5 are hydrogen and k is 3.

[2] = test system: guinea pig lung parenchymal tissue; assay: Immunologically Mediated Contraction of the Parenchymal Strip (IMCPS); format: cell-based; details: Cavia porcellus, inhibition of egg albumin-induced contraction of sensitized guinea pig lung strip, 30 min preincubation, chlorpheniramine 10 μM and indomethacin 100 μM present, active if >=15%, read-out: IMCPS % Inhib @ 100 μM
Experimental: (a) Immunogically Mediated Contraction of the Parenchymal Strip (IMCPS)
It is a modification of the procedure published by K. Forsberg and L. Sorenby in Agents and Actions, Vol. 9 pp. 364-368 (1978). In this test, male Hartley strain guinea pigs weighting 400 to 600 g were sensitized by subcutaneous administration of chicken egg albumin (Sigma A-5503, 1.0 mg, 0.5% solution) and bordetella pertussis, 11×10^9 cells (MassachusettsPublic health Biological Labs) 4 to 8 weeks prior to the experiment. The animals were sacrificed, the heart and lungs were removed en bloc and placed in Krebs solution at room temperature. Lung strips (2.5 cm in length) were cut from the perihperal edge of each lobe. Two strips were removed from each animal and were trimmed to be of equal length. Each strip was suspended in an isolated organ bath (10.0 ml) containing oxygenated Krebs buffer solution at 37.5° C. then attached to a force displacement transducer (Grass FTO3) and placed under an initial tension of 1.0 g. The tissues were allowed to equilibrate for 45-60 min, during which the bathing solution was changed several times. At the end of the equilbration period, chlorpheniramine (10.0μM) and indomethacin (100.0μM) were added to eliminate the contribution of histamine and prostaglandins to the contractile response. The two tissues from each animal were matched so that one tissue served as a control and the test drug dissolved in DMSO was added to the bath containing the other tissue at a final concentration of 100μM. After 30 min, egg albumin was added to each bath and the contractile response was measured as milligrams of tension developed as recorded on a Grass Model 7D polygraph.
as §1

SMILES	IC50 [1] [µM]	inhibition at 100 µM [2] [%]
CCCCCCCCCCCCC(O)C/C=C\CCCC(=O)O (stereo not shown) [Example 2, 8-Hydroxy-5(Z)-eicosenoic Acid]	7.5	19
CCCCCCCCCCCCC(=O)C/C=C\CCCC(=O)O [Example 3, 8-oxo-5-(Z)-eicosenoic Acid]	13	24
CCCCCCCCCCCCC(=O)CC#CCCCC(=O)O [Example 4, 8-Oxo-5-eicosynoic Acid]	4.9	22
O=C(O)CCCC#CCC(O)CCc1ccccc1 (stereo not shown) [Example 5, 8-Hydroxy-10-phenyl-5-decynoic Acid Hydrate (10:1)]	14.2	9 to 14
O=C(O)CCC/C=C\CC(O)CCc1ccccc1 (stereo not shown) [Example 6, 8-Hydroxy-10-phenyl-5(Z)-decenoic Acid]	13	9
CCCCCc1ccc(OCC(O)CC#CCCCC(=O)OC)cc1 (stereo not shown) [Example 8, Methyl 8-Hydroxy-9-(4-pentylphenoxy)-5-nonynoate]	8	14
CCCCCc1ccc(OCC(O)C/C=C\CCCC(=O)OC)cc1 (stereo not shown) [Example 9, Methyl 8-Hydroxy-9-(4-pentylphenoxy)-5(Z)-nonenoate]	14	0
CCCCCc1ccc(OCC(O)C/C=C\CCCC(=O)O)cc1 (stereo not shown) [Example 10, 8-Hydroxy-9-(4-pentylphenoxy)-5-(Z)-nonenoic acid]	1.1 to 9.5	28.5
CCCCCc1ccc(OCC(C/C=C\CCCC(=O)OC)SC(C)=O)cc1 (stereo not shown) [Example 11, Methyl 8-(Acetylthio)-9-(4-pentylphenoxy)-5-(Z)-nonenoate]	8.5	3
CCCCCc1ccc(OCC(O)CCCCCCC(=O)O)cc1 (stereo not shown) [Example 13, 8-Hydroxy-9-(4-pentylphenoxy)nonanoic Acid]	2.3	6
CCCCCOc1ccc(OCC(O)CC#CCCCC(=O)O)cc1 (stereo not shown) [Example 14b, 8-Hydroxy-9-(4-pentoxyphenoxy)-5-nonynoic acid]	33	0 to 30

Continued, in another order:

IC50 [1] [µM]	SMILES	inhibition at 100 µM [2] [%]
12	CCCCCCCCCCCCC(O)CC#CCCCC(=O)O (stereo not shown) [Example 1d, 8-Hydroxy-5-eicosynoic acid]	20 to 43
12	CCCCCc1ccc(OCC(O)CC#CCCCC(=O)O)cc1 (stereo not shown) [Example 7b, 8-Hydroxy-9(4-pentylphenoxy)-5-nonynoic acid]	29
13	CCCCCc1ccc(OCC(S)CC#CCCCC(=O)O)cc1 (stereo not shown) [Example 12b, 8-Mercapto-9-(4-pentylphenoxy)-5-nonynoic acid]	29
